In ChEMBL document CHEMBL1201862, “PubChem BioAssay data set” (2004):
Blank lines part the entries; values can stand above or below the compound they belong to. The source made the active and inactive calls.

What was measured:
[1] = target: T1, Sphingosine 1-phosphate receptor 2 (Homo sapiens, UniProt O95136); experiment: Dose Response Cell-Based Assay for Agonists of the Sphingosine 1-Phosphate Receptor 2 (S1P2): Purchased Analogues. [Related pubchem assays: 1192, 373, 439 ]; assay type: functional
[2] = target: Sphingosine 1-phosphate receptor 1 (Homo sapiens, UniProt P21453); experiment: Dose Response Cell-Based Assay for Agonists of the Sphingosine 1-Phosphate Receptor 1 (S1P1): Purchased Analogues. [Related pubchem assays: 1192, 373, 439 ]; assay type: functional
[3] = target: Sphingosine 1-phosphate receptor 3 (Homo sapiens, UniProt Q99500); experiment: Dose Response Cell-Based Assay for Agonists of the Sphingosine 1-Phosphate Receptor 3 (S1P3): Purchased Analogues. [Related pubchem assays: 373, 439 ]; assay type: functional
[4] = NIH-3T3 fibroblast cytotoxicity, dose response, cytotoxicity control, cell-based, fluorescence, Alamar Blue, secondary assay (AID 2327); assay type: functional;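 also: NIH-3T3 mouse fibroblasts cultured with fluconazole at 8 µg/mL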
[5] = C. albicans growth with fluconazole, confirmation, fluorescence, retest (AID 2467); assay type: functional, cell-based
[6] = target: T2, Serine/threonine-protein phosphatase (Candida dubliniensis (strain CD36 / CBS 7987 / NCPF 3949 / NRRLY-17841) (Yeast), UniProt B9W6M3); experiment: calcineurin pathway inhibitors in yeast reporter, dose response, S. cerevisiae, CDRE-lacZ, luminescence, secondary (AID 2388); assay type: functional, cell-based;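 also: yeast reporter cells carrying a calcineurin-responsive lacZ construct stimulated with calcium chloride; luminescent beta-galactosidase reporter signal in whole cells rather than isolated phosphatase activity; potency for inhibition where a drop in reporter signal means calcineurin blockade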
T2 sequence (B9W6M3 whole entry): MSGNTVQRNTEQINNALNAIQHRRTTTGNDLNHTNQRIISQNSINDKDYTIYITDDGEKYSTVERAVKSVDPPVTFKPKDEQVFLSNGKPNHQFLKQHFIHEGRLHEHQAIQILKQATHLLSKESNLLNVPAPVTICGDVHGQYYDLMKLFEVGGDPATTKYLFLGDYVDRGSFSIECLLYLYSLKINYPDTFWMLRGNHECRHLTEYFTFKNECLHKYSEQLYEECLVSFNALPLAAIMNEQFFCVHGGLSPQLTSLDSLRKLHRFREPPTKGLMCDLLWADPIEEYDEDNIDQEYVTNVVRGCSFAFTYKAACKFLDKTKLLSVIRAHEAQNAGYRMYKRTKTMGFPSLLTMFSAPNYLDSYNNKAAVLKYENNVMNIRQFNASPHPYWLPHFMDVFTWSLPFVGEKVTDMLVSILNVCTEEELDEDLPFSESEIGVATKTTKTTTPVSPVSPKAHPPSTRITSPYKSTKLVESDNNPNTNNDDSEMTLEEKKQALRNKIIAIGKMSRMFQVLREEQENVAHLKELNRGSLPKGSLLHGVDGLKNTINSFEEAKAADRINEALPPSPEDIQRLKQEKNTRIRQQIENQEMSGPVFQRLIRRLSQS

[7] = Luminescence Cell-Based Dose Confirmation HTS to Identify Inhibitors of Polyadenylation.; assay type: functional
[8] = target: ATP-dependent molecular chaperone HSP82 (Candida albicans (strain WO-1) (Yeast), UniProt C4YTQ8); experiment: loss of DOC-induced GRE-beta-galactosidase reporter signal, dose response, Hsp90 inhibitor project, S. cerevisiae, luminescence (AID 2400); assay type: functional, cell-based;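 also: beta-galactosidase luminescence from glucocorticoid response element reporter as proxy for Hsp90 function; inhibitor potency where signal loss means Hsp90 inhibition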
[9] = target: Inward rectifier potassium channel 2 (Mus musculus, UniProt P35561); experiment: Manual electrophysiological patch clamp assay for SAR compounds that inhibit/block inward-rectifying potassium ion channel Kir2.1. [Related pubchem assays: 1843 (Summary assay for Kir2.1 inhibitor assays.), 1672 (Primary HTS of 305616 compounds where 2592 were identified as active.)]; assay type: functional
[10] = target: Potassium voltage-gated channel subfamily KQT member 2 (Rattus norvegicus, UniProt O88943, W236L); experiment: KCNQ2 channel potentiators, dose response, mechanism study for KCNQ2 potentiator project, cell-based, automated electrophysiology (AID 2603); assay type: functional
[11] = target: T1, Sphingosine 1-phosphate receptor 2; experiment: Dose Response Cell Based Assay for Agonists of the S1P2 Receptor of Purchased Analogues. [Related pubchem assays: 729, 843, 854, 736 ]; assay type: functional
[12] = Luminescence-based dose response cell-based high throughput screening assay for cytotoxic compounds using the IEC-6 intestinal epithelial cell line. [Related pubchem assays: 1858 (Summary AID.), 1825 (Counterscreen.), 1907 (Confirmation screen.)]; assay type: functional
[13] = Luminescence Cell-Based Dose Retest to Confirm Inhibitors of Cancer Stem Cells. [Related pubchem assays (depositor defined):AID2717, AID2721]; assay type: functional; conditions: Homo sapiens
[14] = cytotoxicity in HEK-293T cells, dose response, cytotoxicity control for TCR NF-kB inhibitor project, luminescence, T-cell screen hits (AID 489026); assay type: functional, cell-based;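 also: cells exposed to compound about 14 hours before the viability readout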
NADPH oxidase 1 = NADPH oxidase 1 (Homo sapiens, UniProt Q9Y5S8); assay type: functional, cell-based;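 also: Cell-based assay with luminescence read-out, IC50 derived from inhibitor dose-response curves; intracellular ROS from endogenous NOX1 in intact HT29 colon cancer cells; potency of inhibitors that lower the ROS luminescence signal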
Estrogen receptor [15] = target: T3, Estrogen receptor (Homo sapiens, UniProt P03372);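 also: potency for inhibiting coactivator peptide recruitment to the receptor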
Estrogen receptor beta = Estrogen receptor beta (Homo sapiens, UniProt Q92731);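 also: recombinant ER-beta bound to coactivator SRC1 peptide in presence of estradiol agonist; inhibitors block coactivator peptide binding and lower the FRET signal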
Estrogen receptor [16] = target: T3, Estrogen receptor; experiment: potentiators of ERα–SRC-1 coactivator binding, dose response, biochemical, TR-FRET, ERα LBD (AID 737)
[17] = target: T4, E3 ubiquitin-protein ligase XIAP (Homo sapiens, UniProt P98170); experiment: Counter Screen using XIAP-Bir3 for Chemical Antagonists of Bir1/2 domains of IAP-family anti-apoptotic proteins. [Related pubchem assays (depositor defined):AID1018, AID1449, AID1514, AID1638, AID1749, AID1750, AID488957, AID488963]
[18] = target: T4, E3 ubiquitin-protein ligase XIAP; experiment: XIAP antagonists, biochemical, IAP family, fluorescence polarization (AID 1018); assay type: functional
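For AC50 in this document: cells exposed to compound for roughly 70 hours or longer before luminescence read.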

T4 sequence (P98170 whole entry): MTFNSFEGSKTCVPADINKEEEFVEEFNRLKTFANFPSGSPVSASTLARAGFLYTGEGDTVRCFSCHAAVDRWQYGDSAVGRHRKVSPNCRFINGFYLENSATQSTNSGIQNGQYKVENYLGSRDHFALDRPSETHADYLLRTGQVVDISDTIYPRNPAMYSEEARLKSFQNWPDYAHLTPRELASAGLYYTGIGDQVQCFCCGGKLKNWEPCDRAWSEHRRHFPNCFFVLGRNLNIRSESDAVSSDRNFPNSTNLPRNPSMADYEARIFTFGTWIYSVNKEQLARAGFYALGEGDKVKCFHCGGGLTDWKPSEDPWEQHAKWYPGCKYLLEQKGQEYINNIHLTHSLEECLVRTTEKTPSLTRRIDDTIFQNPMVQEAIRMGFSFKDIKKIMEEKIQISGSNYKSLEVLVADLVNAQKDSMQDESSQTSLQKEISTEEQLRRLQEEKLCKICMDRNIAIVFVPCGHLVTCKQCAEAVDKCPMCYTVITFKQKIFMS
T3 sequence (P03372 whole entry): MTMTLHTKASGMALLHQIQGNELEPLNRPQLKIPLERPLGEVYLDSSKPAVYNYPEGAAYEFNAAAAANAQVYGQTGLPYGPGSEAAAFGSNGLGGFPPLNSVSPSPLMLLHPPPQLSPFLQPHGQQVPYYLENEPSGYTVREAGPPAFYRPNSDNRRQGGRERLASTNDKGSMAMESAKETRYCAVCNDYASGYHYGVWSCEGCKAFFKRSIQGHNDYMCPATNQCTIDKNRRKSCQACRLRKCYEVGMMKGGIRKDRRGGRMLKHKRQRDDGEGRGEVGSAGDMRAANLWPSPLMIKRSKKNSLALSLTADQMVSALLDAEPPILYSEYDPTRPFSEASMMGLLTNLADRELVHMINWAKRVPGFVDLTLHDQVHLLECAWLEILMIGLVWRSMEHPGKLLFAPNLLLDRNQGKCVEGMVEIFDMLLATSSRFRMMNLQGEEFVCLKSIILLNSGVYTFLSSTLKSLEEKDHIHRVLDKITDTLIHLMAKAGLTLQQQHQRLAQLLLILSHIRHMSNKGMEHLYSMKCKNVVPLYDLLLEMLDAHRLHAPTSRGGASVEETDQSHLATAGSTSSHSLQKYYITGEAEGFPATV
T1 sequence (O95136 whole entry): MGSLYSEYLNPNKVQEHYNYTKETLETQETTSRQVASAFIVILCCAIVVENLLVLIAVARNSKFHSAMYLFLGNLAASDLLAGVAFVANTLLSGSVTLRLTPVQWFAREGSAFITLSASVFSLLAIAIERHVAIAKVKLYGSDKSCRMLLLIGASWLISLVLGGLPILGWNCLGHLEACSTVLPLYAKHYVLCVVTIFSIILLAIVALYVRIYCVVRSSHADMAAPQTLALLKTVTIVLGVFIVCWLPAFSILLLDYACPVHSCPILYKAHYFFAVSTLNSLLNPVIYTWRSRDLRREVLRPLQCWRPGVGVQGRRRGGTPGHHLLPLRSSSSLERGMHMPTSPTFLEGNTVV
NADPH oxidase 1, sequence (Q9Y5S8 whole entry): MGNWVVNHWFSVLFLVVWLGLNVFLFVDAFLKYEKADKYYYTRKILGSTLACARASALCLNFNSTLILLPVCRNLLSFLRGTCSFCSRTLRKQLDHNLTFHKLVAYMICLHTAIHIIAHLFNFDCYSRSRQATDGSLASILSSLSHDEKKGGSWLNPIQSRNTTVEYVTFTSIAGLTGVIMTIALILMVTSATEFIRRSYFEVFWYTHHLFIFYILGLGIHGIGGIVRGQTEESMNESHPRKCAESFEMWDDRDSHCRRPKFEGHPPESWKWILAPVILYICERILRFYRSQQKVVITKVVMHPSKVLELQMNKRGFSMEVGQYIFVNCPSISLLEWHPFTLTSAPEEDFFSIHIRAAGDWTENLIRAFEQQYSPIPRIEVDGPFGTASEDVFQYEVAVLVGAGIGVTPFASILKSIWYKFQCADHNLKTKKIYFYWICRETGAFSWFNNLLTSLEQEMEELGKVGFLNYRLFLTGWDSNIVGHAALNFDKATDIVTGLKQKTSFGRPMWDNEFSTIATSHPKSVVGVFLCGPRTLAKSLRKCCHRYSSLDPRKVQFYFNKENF
Potassium voltage-gated channel subfamily KQT member 2, sequence (O88943 whole entry W236L): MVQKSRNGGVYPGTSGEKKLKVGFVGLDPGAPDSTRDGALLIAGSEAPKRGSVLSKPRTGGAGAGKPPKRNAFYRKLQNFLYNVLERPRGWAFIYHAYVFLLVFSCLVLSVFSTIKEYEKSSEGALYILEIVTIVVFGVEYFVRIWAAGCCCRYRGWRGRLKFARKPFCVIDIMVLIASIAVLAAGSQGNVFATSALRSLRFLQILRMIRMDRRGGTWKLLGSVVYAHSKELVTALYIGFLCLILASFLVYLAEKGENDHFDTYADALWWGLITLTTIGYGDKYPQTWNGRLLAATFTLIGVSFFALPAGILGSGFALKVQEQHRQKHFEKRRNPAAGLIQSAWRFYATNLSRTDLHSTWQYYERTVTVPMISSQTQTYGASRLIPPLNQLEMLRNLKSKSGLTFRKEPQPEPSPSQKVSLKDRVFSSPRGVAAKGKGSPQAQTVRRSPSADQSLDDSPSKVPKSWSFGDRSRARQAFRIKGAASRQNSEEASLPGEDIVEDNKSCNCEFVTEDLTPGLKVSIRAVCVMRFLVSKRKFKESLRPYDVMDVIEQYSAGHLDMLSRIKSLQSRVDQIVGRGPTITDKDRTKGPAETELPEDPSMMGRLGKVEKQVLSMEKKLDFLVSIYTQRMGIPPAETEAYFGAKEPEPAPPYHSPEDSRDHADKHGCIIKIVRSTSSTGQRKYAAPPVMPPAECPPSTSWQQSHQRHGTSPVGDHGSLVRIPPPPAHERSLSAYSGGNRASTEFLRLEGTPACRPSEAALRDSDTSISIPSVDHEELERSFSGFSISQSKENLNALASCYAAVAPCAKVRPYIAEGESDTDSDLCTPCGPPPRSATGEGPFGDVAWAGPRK
Sphingosine 1-phosphate receptor 3, sequence (Q99500 whole entry): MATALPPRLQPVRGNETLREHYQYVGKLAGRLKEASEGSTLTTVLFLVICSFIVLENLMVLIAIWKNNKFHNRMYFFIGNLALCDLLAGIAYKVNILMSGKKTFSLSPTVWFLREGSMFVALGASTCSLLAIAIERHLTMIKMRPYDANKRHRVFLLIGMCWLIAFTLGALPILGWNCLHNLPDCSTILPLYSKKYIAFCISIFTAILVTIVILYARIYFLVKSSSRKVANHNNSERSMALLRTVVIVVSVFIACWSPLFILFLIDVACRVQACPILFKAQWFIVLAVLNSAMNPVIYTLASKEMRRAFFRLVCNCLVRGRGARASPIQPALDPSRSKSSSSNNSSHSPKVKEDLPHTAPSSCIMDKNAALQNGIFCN
Estrogen receptor beta, sequence (Q92731 whole entry, the tested form may be a part): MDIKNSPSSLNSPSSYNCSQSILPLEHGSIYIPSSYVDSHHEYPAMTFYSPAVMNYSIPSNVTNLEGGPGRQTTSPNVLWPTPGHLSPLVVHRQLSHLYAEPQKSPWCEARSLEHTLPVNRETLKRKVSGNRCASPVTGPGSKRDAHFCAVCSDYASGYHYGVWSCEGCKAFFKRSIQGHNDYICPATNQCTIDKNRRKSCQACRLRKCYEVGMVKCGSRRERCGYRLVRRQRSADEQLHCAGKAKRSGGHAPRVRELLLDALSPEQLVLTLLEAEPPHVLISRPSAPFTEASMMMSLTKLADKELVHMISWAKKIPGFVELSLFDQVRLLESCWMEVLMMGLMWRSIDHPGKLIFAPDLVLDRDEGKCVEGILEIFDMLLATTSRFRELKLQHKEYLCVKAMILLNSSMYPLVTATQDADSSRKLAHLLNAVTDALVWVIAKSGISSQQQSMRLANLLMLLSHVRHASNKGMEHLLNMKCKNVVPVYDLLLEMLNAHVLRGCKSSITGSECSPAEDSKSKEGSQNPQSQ
Sphingosine 1-phosphate receptor 1, sequence (P21453 whole entry): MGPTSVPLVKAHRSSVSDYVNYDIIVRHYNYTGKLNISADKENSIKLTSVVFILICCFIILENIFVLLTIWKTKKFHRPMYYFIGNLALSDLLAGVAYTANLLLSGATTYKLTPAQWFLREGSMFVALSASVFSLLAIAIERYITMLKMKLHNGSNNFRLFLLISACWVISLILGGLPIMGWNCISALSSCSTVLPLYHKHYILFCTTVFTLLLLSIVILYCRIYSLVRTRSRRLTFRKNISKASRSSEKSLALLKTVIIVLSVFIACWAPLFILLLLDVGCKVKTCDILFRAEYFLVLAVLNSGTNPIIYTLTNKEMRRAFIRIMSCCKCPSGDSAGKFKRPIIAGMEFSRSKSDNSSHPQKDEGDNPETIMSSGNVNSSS
Inward rectifier potassium channel 2, sequence (P35561 whole entry): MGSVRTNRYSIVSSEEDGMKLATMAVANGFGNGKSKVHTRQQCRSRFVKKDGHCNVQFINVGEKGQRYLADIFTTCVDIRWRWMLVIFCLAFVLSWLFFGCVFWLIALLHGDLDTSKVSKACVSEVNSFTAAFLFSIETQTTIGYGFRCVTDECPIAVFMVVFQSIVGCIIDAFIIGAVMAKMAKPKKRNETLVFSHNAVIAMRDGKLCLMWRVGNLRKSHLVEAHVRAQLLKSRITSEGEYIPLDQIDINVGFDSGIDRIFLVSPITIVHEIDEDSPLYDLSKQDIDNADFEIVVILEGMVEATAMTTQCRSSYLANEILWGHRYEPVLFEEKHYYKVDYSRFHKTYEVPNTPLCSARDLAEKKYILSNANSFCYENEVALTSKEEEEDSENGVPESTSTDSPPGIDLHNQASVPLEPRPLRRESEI

Structure (SMILES): Cc1ccc(NC(=O)c2sc3nc(N)c(C#N)cc3c2N)cc1
EC50 [4]: > 150 µM (inactive)
EC50 [5]: 1.2 µM (active)
EC50 [6]: > 180 µM (inactive)
EC50 [7]: 15.2 µM (active)
EC50 [8]: > 150 µM (inactive)

Structure (SMILES): COc1ccc(CNCc2ccc(Cl)cc2)cc1
IC50 [9]: 0.711 µM (active)

Structure (SMILES): CCOc1ccccc1NC(=O)NC(C)c1ccc2c(c1)OCO2 (stereo not given)
EC50 [10]: 1.51 µM (active)

Structure (SMILES): COc1ccc(NS(=O)(=O)c2cc(-c3cnc(C4CC4)o3)ccc2C)cc1
IC50 [12]: 2.08 µM (active)
AC50 [13]: 0.405 µM (active)
IC50 [14]: 70.5 µM (inactive)

Structure (SMILES): O=C(NCc1ccco1)c1cc2cc3ccc(Cl)cc3nc2o1
IC50 (Estrogen receptor [15]): 17.7 µM (active)
IC50 (Estrogen receptor beta): > 50 µM (not active)

Structure (SMILES): Cc1ccc(NC(=O)CNC2CCS(=O)(=O)C2)cc1C (stereo not given)
IC50 [17]: > 100 µM (inactive)
IC50 [18]: > 100 µM (not active)

Second part, the compound after the results:

EC50 [1]: > 10 µM (not active)
EC50 [2]: > 50 µM (not active)
EC50 [3]: > 50 µM (not active)
Structure (SMILES): Cc1cc(C(=O)N(C)C2CCCCC2)no1

EC50 [11]: > 30 µM (not active)
Structure (SMILES): Cc1nc(C)c(C(=O)OCC(=O)c2cc(C)n(Cc3ccccc3)c2C)s1

IC50 (NADPH oxidase 1): > 17 µM (not active)
Structure (SMILES): COc1ccc(NC(=O)Nc2ccc3c(c2)CCN3S(=O)(=O)c2ccccc2)cc1

EC50 (Estrogen receptor [16]): 6.71 µM (not active)
Structure (SMILES): COc1cccc(C2CC(c3ccc(F)cc3)Nc3nc(N)nn32)c1 (stereo not given)
